Test [1] has as its target T1, FAK (Homo sapiens, UniProt Q05397). Put plainly: Cell-based capture ELISA for inhibition of FAK autophosphorylation [pY397] in MiaPaCa2 cells. Here is the method:
Cell-Based Assays for Inhibition of FAK Autophosphorylation: MiaPaCa2 and U87MG
ELISA kit from Invitrogen (KHO0441).
Reagents Provided in Biosource FAK [pY397]
The cells were then suspended in cell assay medium.
(In general: An ELISA detects its analyte on a solid surface through an enzyme-linked reagent.)

The target in test [2] is T1, FAK. Briefly: biochemical.
[3] abbreviates: MIA-PaCa2 cells on fibronectin, 2 h, no plasma, read-out: Mean FAK Cell Mechanistic IC50 MIA-PaCa2.
Where [4] appears, read: MIA-PaCa2 cells, + 50% human plasma, read-out: Mean FAK Cell Mechanistic IC50 + 50% hP MIA-PaCa2.
Setting [5] is: MIA-PaCa2 cells, + 50% mouse plasma (Table 2), read-out: Mean FAK Cell Mechanistic IC50 + 50% mP MIA-PaCa2.
Setting [6] is: MIA-PaCa2 cells, + 50% mouse plasma (Table 3), read-out: Mean FAK Cell Mechanistic IC50 + 50% mP MIA-PaCa2.

SMILES strings stand for the structures.

T1 sequence (Q05397 whole entry): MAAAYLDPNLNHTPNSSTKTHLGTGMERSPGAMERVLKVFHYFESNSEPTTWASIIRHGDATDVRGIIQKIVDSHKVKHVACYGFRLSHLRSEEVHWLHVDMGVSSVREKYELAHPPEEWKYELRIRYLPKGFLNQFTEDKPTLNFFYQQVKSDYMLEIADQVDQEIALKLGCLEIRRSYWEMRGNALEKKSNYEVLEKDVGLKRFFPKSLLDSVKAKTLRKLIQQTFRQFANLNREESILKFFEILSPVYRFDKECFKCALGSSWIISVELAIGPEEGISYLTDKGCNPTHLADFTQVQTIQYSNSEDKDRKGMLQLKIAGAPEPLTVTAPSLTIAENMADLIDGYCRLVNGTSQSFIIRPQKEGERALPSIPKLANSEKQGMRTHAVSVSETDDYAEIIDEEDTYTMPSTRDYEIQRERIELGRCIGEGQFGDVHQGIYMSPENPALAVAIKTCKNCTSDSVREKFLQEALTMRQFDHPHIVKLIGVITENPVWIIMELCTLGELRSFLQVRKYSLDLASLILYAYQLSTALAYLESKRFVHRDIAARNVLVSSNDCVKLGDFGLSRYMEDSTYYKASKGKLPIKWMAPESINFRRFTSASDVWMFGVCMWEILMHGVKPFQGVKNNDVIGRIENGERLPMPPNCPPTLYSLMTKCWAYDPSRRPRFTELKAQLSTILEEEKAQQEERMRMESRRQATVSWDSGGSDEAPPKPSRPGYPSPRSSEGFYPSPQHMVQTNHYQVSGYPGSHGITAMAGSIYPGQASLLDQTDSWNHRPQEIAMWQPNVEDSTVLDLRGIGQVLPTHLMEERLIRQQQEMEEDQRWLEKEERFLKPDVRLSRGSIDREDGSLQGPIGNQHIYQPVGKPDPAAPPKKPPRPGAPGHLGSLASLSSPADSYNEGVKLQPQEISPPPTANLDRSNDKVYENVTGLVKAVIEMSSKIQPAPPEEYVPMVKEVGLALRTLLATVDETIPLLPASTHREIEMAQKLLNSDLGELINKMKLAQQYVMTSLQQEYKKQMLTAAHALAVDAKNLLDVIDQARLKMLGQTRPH

One may read the IC50 as the concentration that gives 50% inhibition. As to `CCOP(C)(=O)Cc1ccc(Nc2ncc(C(F)(F)F)c(Nc3ccc(N4CCCC4)c4c3C(=O)N(C)C4)n2)cc1` (stereo not shown) [Example 80, Ethyl methyl(4-{[4-{[2-methyl-3-oxo-7-(pyrrolidin-1-yl)-2,3-dihydro-1H-isoindol-4-yl]amino}-5-(trifluoromethyl)pyrimidin-2-yl]amino}benzyl)phosphinate], the half-inhibitory concentration (IC50) on FAK [1] (setting [3]), at FAK [1] (setting [4]) and at FAK [2] was less than 1000 nM each time.

Consider `CCOP(C)(=O)Cc1ccc(Nc2ncc(C(F)(F)F)c(Nc3ccc(N4CCC(O)C4)c4c3C(=O)N(C)C4)n2)cc1` (stereo not shown) [Example 81, Ethyl (4-{[4-{[7-(3-hydroxypyrrolidin-1-yl)-2-methyl-3-oxo-2,3-dihydro-1H-isoindol-4-yl]amino}-5-(trifluoromethyl)pyrimidin-2-yl]amino}benzyl)methylphosphinate], for which the concentration for half-maximal inhibition (IC50) on FAK [1] (setting [3]), at FAK [1] (setting [4]) and against FAK [2] was less than 1000 nM in each case.

On to `CCOP(C)(=O)Cc1ccc(Nc2ncc(C(F)(F)F)c(Nc3ccc(N4CCCCC4)c4c3C(=O)N(C)C4)n2)cc1` (stereo not shown) [Example 82, Ethyl methyl(4-{[4-{[2-methyl-3-oxo-7-(piperidin-1-yl)-2,3-dihydro-1H-isoindol-4-yl]amino}-5-(trifluoromethyl)pyrimidin-2-yl]amino}benzyl)phosphinate], for which the 50% inhibitory concentration (IC50) on FAK [1] (setting [3]), at FAK [1] (setting [4]) and against FAK [2] was less than 1000 nM in each case.

`CCOP(=O)(Cc1ccc(Nc2ncc(C(F)(F)F)c(Nc3ccc(N4CCCC4)c4c3C(=O)N(C)C4)n2)c(OC)c1)OCC` [Example 83, Diethyl (3-methoxy-4-{[4-{[2-methyl-3-oxo-7-(pyrrolidin-1-yl)-2,3-dihydro-1H-isoindol-4-yl]amino}-5-(trifluoromethyl)pyrimidin-2-yl]amino}benzyl)phosphonate]: the IC50 on FAK [1] (setting [5]) and against FAK [2] was less than 1000 nM in each case.

For the molecule `CCOP(=O)(Cc1ccc(Nc2ncc(C(F)(F)F)c(Nc3ccc(N4CC[C@H](O)C4)c4c3C(=O)N(C)C4)n2)c(OC)c1)OCC` [Example 84, Diethyl (4-{[4-({7-[(3S)-3-hydroxypyrrolidin-1-yl]-2-methyl-3-oxo-2,3-dihydro-1H-isoindol-4-yl}amino)-5-(trifluoromethyl)pyrimidin-2-yl]amino}-3-methoxybenzyl)phosphonate], the IC50 at FAK [1] (setting [5]) and against FAK [2] was less than 1000 nM each time.

Consider `CCOP(=O)(Cc1ccc(Nc2ncc(C(F)(F)F)c(Nc3ccc(N4CCC(O)CC4)c4c3C(=O)N(C)C4)n2)c(OC)c1)OCC` [Example 85, Diethyl (4-{[4-{[7-(4-hydroxypiperidin-1-yl)-2-methyl-3-oxo-2,3-dihydro-1H-isoindol-4-yl]amino}-5-(trifluoromethyl)pyrimidin-2-yl]amino}-3-methoxybenzyl)phosphonate], for which the IC50 at FAK [1] (setting [5]) and at FAK [2] was less than 1000 nM throughout.

`CCOP(=O)(Cc1ccc(Nc2ncc(C(F)(F)F)c(Nc3ccc(N4CCCC(O)C4)c4c3C(=O)N(C)C4)n2)c(OC)c1)OCC` (stereo not shown) [Example 86, Diethyl (4-{[4-{[7-(3-hydroxypiperidin-1-yl)-2-methyl-3-oxo-2,3-dihydro-1H-isoindol-4-yl]amino}-5-(trifluoromethyl)pyrimidin-2-yl]amino}-3-methoxybenzyl)phosphonate]: the IC50 at FAK [1] (setting [5]) and at FAK [2] was less than 1000 nM each time.

Regarding `CCOC(=O)[C@H]1CC[C@@H](c2ccc(Nc3nc(Nc4ccc(CP(=O)(OCC)OCC)cc4OC)ncc3C(F)(F)F)c3c2CN(C)C3=O)CC1` [Example 87, Ethyl cis-4-(7-{[2-({4-[(diethoxyphosphoryl)methyl]-2-methoxyphenyl}amino)-5-(trifluoromethyl)pyrimidin-4-yl]amino}-2-methyl-1-oxo-2,3-dihydro-1H-isoindol-4-yl)cyclohexanecarboxylate], the IC50 on FAK [1] (setting [5]) and on FAK [2] was less than 1000 nM each time.

Consider `CCOC(=O)[C@H]1CC[C@H](c2ccc(Nc3nc(Nc4ccc(CP(=O)(OCC)OCC)cc4OC)ncc3C(F)(F)F)c3c2CN(C)C3=O)CC1` [Example 88, Ethyl trans-4-(7-{[2-({4-[(diethoxyphosphoryl)methyl]-2-methoxyphenyl}amino)-5-(trifluoromethyl)pyrimidin-4-yl]amino}-2-methyl-1-oxo-2,3-dihydro-1H-isoindol-4-yl)cyclohexanecarboxylate], for which the IC50 at FAK [1] (setting [5]) and on FAK [2] was less than 1000 nM each time.

On to `CCOP(=O)(Cc1ccc(Nc2ncc(C(F)(F)F)c(Nc3ccc([C@H]4CC[C@H](C(=O)O)CC4)c4c3C(=O)N(C)C4)n2)c(OC)c1)OCC` [Example 90, Trans-4-(7-{[2-({4-[(diethoxyphosphoryl)methyl]-2-methoxyphenyl}amino)-5-(trifluoromethyl)pyrimidin-4-yl]amino}-2-methyl-1-oxo-2,3-dihydro-1H-isoindol-4-yl)cyclohexanecarboxylic acid], for which the IC50 at FAK [1] (setting [5]) and on FAK [2] was less than 1000 nM in each case.

On to `CCOP(=O)(Cc1ccc(Nc2ncc(C(F)(F)F)c(Nc3ccc([C@H]4CC[C@@H](O)CC4)c4c3C(=O)N(C)C4)n2)c(OC)c1)OCC` [Example 94, Diethyl (4-{[4-{[7-(cis-4-hydroxycyclohexyl)-2-methyl-3-oxo-2,3-dihydro-1H-isoindol-4-yl]amino}-5-(trifluoromethyl)pyrimidin-2-yl]amino}-3-methoxybenzyl)phosphonate], for which the IC50 at FAK [1] (setting [5]) and at FAK [2] was less than 1000 nM in each case.

Consider `CCOP(=O)(Cc1ccc(Nc2ncc(C(F)(F)F)c(Nc3ccc([C@H]4CC[C@H](N5CCN(C)CC5)CC4)c4c3C(=O)N(C)C4)n2)c(OC)c1)OCC` [Example 96, Diethyl (3-methoxy-4-{[4-({2-methyl-7-[trans-4-(4-methylpiperazin-1-yl)cyclohexyl]-3-oxo-2,3-dihydro-1H-isoindol-4-yl}amino)-5-(trifluoromethyl)pyrimidin-2-yl]amino}benzyl)phosphonate], for which the IC50 at FAK [1] (setting [5]) and at FAK [2] was less than 1000 nM in each case.

Turning to `CCOP(=O)(Cc1ccc(Nc2ncc(C(F)(F)F)c(Nc3ccc(-c4cnn(C5CC(O)C5)c4)c4c3C(=O)N(C)C4)n2)c(OC)c1)OCC` (stereo not shown) [Example 100, Diethyl (4-{[4-({7-[1-(3-hydroxycyclobutyl)-1H-pyrazol-4-yl]-2-methyl-3-oxo-2,3-dihydro-1H-isoindol-4-yl}amino)-5-(trifluoromethyl)pyrimidin-2-yl]amino}-3-methoxybenzyl)phosphonate], the IC50 on FAK [1] (setting [6]) and against FAK [2] was less than 1000 nM in each case.

As to `CCOP(=O)(Cc1ccc(Nc2ncc(C(F)(F)F)c(Nc3ccc(-c4cnn(C[C@H](O)CO)c4)c4c3C(=O)N(C)C4)n2)cc1)OCC` [Example 101, Diethyl [4-({4-[(7-{1-[(2S)-2,3-dihydroxypropyl]-1H-pyrazol-4-yl}-2-methyl-3-oxo-2,3-dihydro-1H-isoindol-4-yl)amino]-5-(trifluoromethyl)pyrimidin-2-yl}amino)benzyl]phosphonate], the IC50 at FAK [1] (setting [6]) and against FAK [2] was less than 1000 nM each time.

Consider `CCOP(=O)(Cc1ccc(Nc2ncc(C(F)(F)F)c(Nc3ccc(F)cc3C(=O)NC)n2)c(OC)c1)OCC` [Example 102, Diethyl (4-{[4-{[4-fluoro-2-(methylcarbamoyl)phenyl]amino}-5-(trifluoromethyl)pyrimidin-2-yl]amino}-3-methoxybenzyl)phosphonate], for which the IC50 on FAK [1] (setting [6]) and against FAK [2] was less than 1000 nM each time.

On to `CCOP(=O)(Cc1ccc(Nc2ncc(C(F)(F)F)c(Nc3cc(F)ccc3C(=O)NC)n2)c(OC)c1)OCC` [Example 103, Diethyl (4-{[4-{[5-fluoro-2-(methylcarbamoyl)phenyl]amino}-5-(trifluoromethyl)pyrimidin-2-yl]amino}-3-methoxybenzyl)phosphonate], for which the IC50 on FAK [1] (setting [6]) and at FAK [2] was less than 1000 nM in each case.

Regarding `CCOP(=O)(Cc1ccc(Nc2ncc(C(F)(F)F)c(Nc3ccccc3C(=O)NC)n2)c(Cl)c1)OCC` [Example 104, Diethyl (3-chloro-4-{[4-{[2-(methylcarbamoyl)phenyl]amino}-5-(trifluoromethyl)pyrimidin-2-yl]amino}benzyl)phosphonate], the IC50 on FAK [1] (setting [6]) and against FAK [2] was less than 1000 nM each time.

With `CCOP(=O)(Cc1ccc(Nc2ncc(C(F)(F)F)c(Nc3cccc4c3C(=O)N(C)C4=O)n2)c(OC)c1)OCC` [Example 105, Diethyl [3-methoxy-4-({4-[(2-methyl-1,3-dioxo-2,3-dihydro-1H-isoindol-4-yl)amino]-5-(trifluoromethyl)pyrimidin-2-yl}amino)benzyl]phosphonate], the IC50 on FAK [1] (setting [6]) was 1000 to 10000 nM; at FAK [2] it was less than 1000 nM.

Regarding `CCOP(=O)(Cc1ccc(Nc2ncc(C(F)(F)F)c(Nc3ccc(Br)cc3C(=O)NC)n2)c(OC)c1)OCC` [Example 107, Diethyl (4-{[4-{[4-bromo-2-(methylcarbamoyl)phenyl]amino}-5-(trifluoromethyl)pyrimidin-2-yl]amino}-3-methoxybenzyl)phosphonate], the IC50 on FAK [1] (setting [6]) and on FAK [2] was less than 1000 nM throughout.

Regarding `CCOP(=O)(Cc1ccc(Nc2ncc(C(F)(F)F)c(Nc3ccc(CN4CCCC4)c4c3C(=O)N(C)C4)n2)cc1)OCC` [Example 109, Diethyl (4-{[4-{[2-methyl-3-oxo-7-(pyrrolidin-1-ylmethyl)-2,3-dihydro-1H-isoindol-4-yl]amino}-5-(trifluoromethyl)pyrimidin-2-yl]amino}benzyl)phosphonate], the IC50 is 1000 to 10000 nM at FAK [1] (setting [6]) and less than 1000 nM at FAK [2].

The values above are taken from patent publication US9096624B2 (OSI Pharmaceuticals, LLC, priority 2009, dated 2015).
